# Literature values as cited in patent publication US5480905A, “Benzodioxane derivatives” (Chugai Seiyaku Kabushiki Kaisha, priority 1991, dated 1996).
# “Also recorded” adds a separate entry of the source.
# Columns and labels:
# [1] = in vivo; cited from earlier work
# [2] = tested on: intracerebral serotonin 2 receptor; conditions: continuous administration; cited from earlier work
smiles,measurement,setting,value
O=C1c2ccccc2S(=O)(=O)N1CCCCN1CCN(c2ncccn2)CC1 [Ipsapirone],"Antianxiety/antidepressant action (words, background)",[1],only weak antidepressant and antianxiety effects; also recorded: both antianxiety and antidepressant effects
same,"Side effects (words, background)",[1],either lower ultromotivity (probably due to the dopamine antagonistic action) or serotonin syndrome
same,"intracerebral serotonin 2 receptor (words, background)",[2],decrease in the intracerebral serotonin 2 receptor
